# Experimental data: US20130245064A1, “NOVEL NEUROTRYPSIN INHIBITORS” (priority 2010, published 2013)
# How the values were obtained:
# [1] = target: T1, Thrombin (Homo sapiens, UniProt P00734); experiment: Determination of IC50 for various proteases: thrombin; type: biochemical; conditions: thrombin 6 nM, substrate S-2266 0.5 mM; Mean ± SD
# T1 construct: purchased American diagnostic
# Procedure: (§1) A 6 mM solution of the test compound in DMSO was prepared. In a V-bottom micro plate the 6 mM compound solution was diluted 6 times in DMSO to obtain a concentration row with the following concentrations: 6 mM, 1.8 mM, 540 μM, 162 μM, 48.8 μM, 14.4 μM, and 4 μM. From this DMSO master plate 1:20 dilutions in 10 mM MOPS pH 8.3 were prepared to obtain solutions of 300, 90, 27, 8.1, 2.44, 0.72 and 0.22 μM in MOPS buffer and 5% DMSO.
# (§2) 100 μl of this solution were pipetted into a flat bottom 96 well microplate and placed into a Tecan infinite 200 plate reader. Before measurement, 50 μl of protease solution and, subsequently 50 μl substrate solution were added by the machine. The liberation of free para nitroanilide was detected at 405 nm. The protease solution was freshly prepared by diluting to the desired concentration from a stock solution in 60 mM MOPS; 600 mM NaCl; 20 mM CaCl2; 10% DMSO; 0.4% PEG 6000 pH 8.3. The substrate solution was prepared by dissolving the solid substrate in an adequate amount of water to get the desired concentrations. The used protease and substrate solutions are given below:
# (§3) All enzymes except trypsin were from human origin (American diagnostic). Trypsin was hog trypsin (Sigma Aldrich). Substrates were purchased from Chromogenix. […]
# [2] = target: T2, Kallikrein (Homo sapiens, UniProt P03952); experiment: Determination of IC50 for various proteases: kallikrein; type: biochemical; conditions: kallikrein 2 nM, substrate S-2288 0.5 mM; Mean ± SD
# T2 construct: purchased American diagnostic
# Procedure: as §1, §2, §3
# [3] = target: T3, uPA (Homo sapiens, UniProt P00749); experiment: Determination of IC50 for various proteases: uPA; type: biochemical; conditions: uPA 40 nM, substrate S-2288 0.5 mM; Mean ± SD
# T3 construct: purchased American diagnostic
# Procedure: as §1, §2, §3
# [4] = test system: C-terminal agrin fragment (CAF); experiment: Analysis of serum CAF levels by western blotting in treated mice; type: in vivo, C57/BL6 mice; conditions: mouse serum pools, 25 mg/kg x 3 s.c., 5 h after last injection, western blot normalized to vehicle
# Procedure: (§4) Adult (P50) C57/BL6 mice from Charles River were used for the experiments. All animal experiments are performed in accordance with international guidelines for proper conduct of animal experiment under jurisdiction of the Swiss law (Permit number ZH-18/2008). For every mouse in the experiment the well-being during the interventions is documented in a score sheet.
# (§5) Three adult mice were treated with 2.5 ml/kg of a 10 mg/ml solution of the compound of Example 1 in 100% DMSO. This corresponds to a dose of 25 mg/kg active ingredient. As vehicle control, 3 mice were treated with 2.5 ml/kg of 100% DMSO. Each mouse received three subcutaneous injections. Between dose 1 and dose 2 there were 8 h, between dose 2 and dose 3 16 h. 5 h after the last injection the mice were euthanatized with CO2.
# Before the first injection the mice were weighted and ˜100 μl of blood was collected from the lateral tail vein. Serum was prepared with centrifugation of blood samples in Microvette 500 Z-Gel tubes (10,000 g, 20° C., 5 min). […]
# After staining for CAF the membrane was washed thoroughly and reused for a staining for endogenous mouse antibodies that served as loading control. […] After imaging with a Stella imaging system (Raytest) the intensity of the CAF bands was measured with AIDA picture analysis software (Raytest) and normalized to the loading levels determined from mouse antibody light chains. […]
# [5] = target: T4, tPA (2 chain) (Homo sapiens, UniProt P00750); experiment: Determination of IC50 for various proteases: tPA; type: biochemical; conditions: tPA (2 chain) 40 nM, substrate S-2288 0.5 mM; Mean ± SD
# T4 construct: tPA (2 chain); purchased American diagnostic
# Procedure: as §1, §2, §3
# [6] = Effect of compound on body weight in mice; type: in vivo, C57/BL6 mice; conditions: 25 mg/kg, three subcutaneous injections
# Procedure: as §4
# The mice are housed under optimal hygienic conditions (OHB) with controlled air-conditioning and lighting (temperature: 20-24° C., humidity: 55-65%, day/night cycle: 12 h/12 h, lights on 7 a.m.). Individually ventilated cages of type II, L (530 cm^2 floor space) with standard litter are used. A maximum of 6 mice is kept in each cage. Mice are fed with standard rodent chow (Extrudat, KLIBA NAFAG) ad libitum and have free access to drinking water. Animal colony is managed and maintained at BioSupport, Schlieren.
# as §5, with “CO2. […]” for “CO2.”
# [7] = target: T5, Factor Xa (Homo sapiens, UniProt P00742); experiment: Determination of IC50 for various proteases: Factor Xa; type: biochemical; conditions: Factor Xa 5 nM, substrate S-2288 0.5 mM; Mean ± SD
# T5 construct: purchased American diagnostic
# Procedure: as §1, §2, §3
# [8] = target: T6, Trypsin (Sus scrofa, UniProt P00761); experiment: Determination of IC50 for various proteases (chromogenic substrate, pNA release at 405 nm): trypsin; type: biochemical; conditions: hog trypsin 2 nM, substrate S-2222 0.5 mM; Mean ± SD
# T6 construct: purchased Sigma Aldrich
# Procedure: as §1, §2, §3
# T4 sequence (P00750 311-562 limits assumed): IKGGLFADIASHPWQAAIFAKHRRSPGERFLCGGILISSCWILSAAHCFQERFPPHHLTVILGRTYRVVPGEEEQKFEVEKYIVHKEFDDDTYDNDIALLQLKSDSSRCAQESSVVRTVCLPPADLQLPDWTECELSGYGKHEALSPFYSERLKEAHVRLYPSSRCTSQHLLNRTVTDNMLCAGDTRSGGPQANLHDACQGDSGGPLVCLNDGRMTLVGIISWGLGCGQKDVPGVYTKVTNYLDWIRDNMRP
# T4 sequence (P00750 36-310 partner limits assumed): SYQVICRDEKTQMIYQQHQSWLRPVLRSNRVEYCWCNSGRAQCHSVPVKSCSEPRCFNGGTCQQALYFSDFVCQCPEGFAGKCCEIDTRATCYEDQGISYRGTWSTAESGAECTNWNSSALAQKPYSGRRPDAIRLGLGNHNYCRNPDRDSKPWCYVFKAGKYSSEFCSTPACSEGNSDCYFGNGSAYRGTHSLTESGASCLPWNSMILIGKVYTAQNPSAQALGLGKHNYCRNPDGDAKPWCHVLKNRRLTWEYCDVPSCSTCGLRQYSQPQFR
# T2 sequence (P03952 391-638 limits assumed): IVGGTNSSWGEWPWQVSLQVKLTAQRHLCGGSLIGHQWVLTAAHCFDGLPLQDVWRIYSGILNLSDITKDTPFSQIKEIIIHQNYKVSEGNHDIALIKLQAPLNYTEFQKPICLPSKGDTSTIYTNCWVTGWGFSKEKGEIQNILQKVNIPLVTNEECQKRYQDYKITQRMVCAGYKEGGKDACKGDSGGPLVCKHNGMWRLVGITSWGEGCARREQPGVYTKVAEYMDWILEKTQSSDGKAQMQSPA
# T2 sequence (P03952 20-390 limits assumed): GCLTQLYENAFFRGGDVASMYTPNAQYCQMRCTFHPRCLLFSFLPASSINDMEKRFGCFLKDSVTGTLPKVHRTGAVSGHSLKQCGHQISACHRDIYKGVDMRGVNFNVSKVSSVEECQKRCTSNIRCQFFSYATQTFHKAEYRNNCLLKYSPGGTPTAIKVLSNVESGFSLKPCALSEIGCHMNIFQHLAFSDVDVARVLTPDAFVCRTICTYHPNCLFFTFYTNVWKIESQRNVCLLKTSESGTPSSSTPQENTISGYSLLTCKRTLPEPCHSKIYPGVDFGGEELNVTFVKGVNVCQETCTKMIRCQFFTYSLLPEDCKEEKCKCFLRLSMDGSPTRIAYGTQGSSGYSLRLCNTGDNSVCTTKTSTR
# T6 sequence (P00761 9-231): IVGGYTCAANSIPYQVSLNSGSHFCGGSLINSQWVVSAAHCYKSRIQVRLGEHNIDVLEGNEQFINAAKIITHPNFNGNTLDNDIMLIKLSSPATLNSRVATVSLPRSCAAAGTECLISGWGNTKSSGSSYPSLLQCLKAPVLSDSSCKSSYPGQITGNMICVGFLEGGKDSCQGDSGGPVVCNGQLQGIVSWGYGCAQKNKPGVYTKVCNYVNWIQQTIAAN
# T5 sequence (P00742 235-488 limits assumed): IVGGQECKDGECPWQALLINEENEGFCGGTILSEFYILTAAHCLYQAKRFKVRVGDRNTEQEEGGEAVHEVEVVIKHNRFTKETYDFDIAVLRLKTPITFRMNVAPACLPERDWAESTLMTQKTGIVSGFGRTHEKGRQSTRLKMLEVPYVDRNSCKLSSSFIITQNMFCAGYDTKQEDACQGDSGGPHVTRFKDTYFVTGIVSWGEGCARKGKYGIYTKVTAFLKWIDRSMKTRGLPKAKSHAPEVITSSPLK
# T5 sequence (P00742 41-179 partner limits assumed): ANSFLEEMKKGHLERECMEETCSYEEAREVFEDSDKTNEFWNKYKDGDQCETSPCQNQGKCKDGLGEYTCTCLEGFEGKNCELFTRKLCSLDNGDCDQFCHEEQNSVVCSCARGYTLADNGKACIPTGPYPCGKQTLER
compound,measurement,setting,value
"O=C(Nc1ccc(C(=O)Nc2ccc(Cl)cc2)c(O)c1)c1ccc(-c2nc3cc(Cl)c(Cl)cc3[nH]2)cc1 [Example 1, N-(4-Chlorophenyl)-4-(4-(5,6-dichloro-1H-benzo[d]imidazol-2-yl)benzamido)-2-hydroxybenzamide]",IC50,[1],> 150 µM
same,IC50,[2],> 150 µM
same,IC50,[3],> 150 µM
same,Average CAF levels,[4],66.6 % of vehicle
same,IC50,[5],> 150 µM
same,Weight loss compared to the vehicle control,[6],did not produce any increase in weight loss
same,IC50,[7],84.8 ± 46.4 µM
same,IC50,[8],> 150 µM
